The text below walks through data of EPA's ToxValDB 9.5 (doi:10.2903/j.efsa.2008.185r).

Series [1] has as its system Mus musculus. Particulars: acute, oral, mortality.
The test system of series [2] is Daphnia magna. Particulars: chronic/long-term; duration: 21 days; reproduction.
Series [3] has as its system Rattus norvegicus. Particulars: for LD50: acute, oral.
In series [4] the test system is Oncorhynchus mykiss.
Series [5] deals with Apis mellifera. Particulars: acute; duration: 48 hours; oral; unspecified; mortality.
In series [6] the test system is Tagia sp. Particulars: acute; duration: 14 days; mortality.
Series [7] deals with Anas platyrhynchos. Particulars: short-term; oral; feed; mortality.
Series [8] relates to Colinus virginianus. Particulars: mortality.
Series [9] deals with Canidae. Particulars: oral, Dog Other, clinical chemistry.
For series [10], the system named is Coturnix coturnix. Particulars: acute, oral, mortality.
In series [11] the test system is Aphidius rhopalosiphi. As to the kind of experiment: LR50; higher = less toxic. Particulars: not reported; mortality.
Series [12] has as its system Typhlodromus pyri. Put plainly: LR50; higher = less toxic. Particulars: not reported; mortality.

The structures appear in SMILES notation. “And” between values parts separate entries of the source, which are not always exact repeats. Equal values may be shown once.

What is called NOAEL is the highest dose or exposure tested at which no adverse effect was seen. For `Cc1nnc(-c2ccccc2)c(=O)n1N` [Metamitron], the LD50 in [1] (M) was 691 mg/kg-day; in series [1], 644 mg/kg-day; in series [3] (F, mortality) it was 1480 mg/kg-day; in series [3] (M, mortality), 1180 mg/kg-day; in [3] (mortality), < 2000 mg/kg-day and 4320 mg/kg-day; in [5], greater than 97.2 µg/piece. Further, the LD50 is greater than 1590 mg/kg-day in [7]; greater than 904 mg/kg-day in [8] (acute, oral, diet); 1300 mg/kg-day in series [10] (F); 1360 mg/kg-day in [10] (M). For the same compound, the NOEC in series [2] came out at 10 mg/L; in series [4] (chronic/long-term, duration: 21 days, growth), 7 mg/L. The NOAEL is 53.8 mg/kg-day in [3] (chronic, F, mortality); 36.4 mg/kg-day in [3] (chronic, M, mortality); 10 mg/kg-day in series [3] (reproduction developmental, body weight); 81.5 mg/kg-day in series [8] (reproduction developmental); 3 mg/kg-day in [9] (chronic, duration: 2 years, diet); 3.6 mg/kg-day in series [9] (subchronic, duration: 90 days). Moreover, the LC50 in [4] (acute, duration: 96 hours, mortality) was greater than 190 µg/mL; in [6], 914 mg/kg. Also, the LR50 in series [11] and in series [12] was 14400 g/ha in each case.
